# Values joined by “and” are separate entries in the source; they are usually repeats but may differ in a detail not shown here. Identical values can stand only once.
# What was measured:
# Mus musculus [1] = experiment: Central anticholinergic activity against physostigmine-induced lethality in Carworth CF1 mouse assessed as animal death at 30 mg/kg, po treated 5 hrs before 1.6 mg/kg, sc physostigmine treatment and 2 mg/kg, ip atropine methyl nitrate treated 0.5 hrs before induction (reference value: 0%); type: functional
# Mus musculus [2] = experiment: Central anticholinergic activity against physostigmine-induced lethality in Carworth CF1 mouse assessed as animal death at 15 mg/kg, po treated 5 hrs before 1.6 mg/kg, sc physostigmine treatment and 2 mg/kg, ip atropine methyl nitrate treated 0.5 hrs before induction (reference value: 0%); type: functional
# Mus musculus [3] = experiment: Central anticholinergic activity against physostigmine-induced lethality in Carworth CF1 mouse assessed as animal death at 7.5 mg/kg, po treated 5 hrs before 1.6 mg/kg, sc physostigmine treatment and 2 mg/kg, ip atropine methyl nitrate treated 0.5 hrs before induction (reference value: 0%); type: functional
# Mus musculus [4] = experiment: Central anticholinergic activity against physostigmine-induced lethality in Carworth CF1 mouse assessed as animal death at 3.75 mg/kg, po treated 5 hrs before 1.6 mg/kg, sc physostigmine treatment and 2 mg/kg, ip atropine methyl nitrate treated 0.5 hrs before induction (reference value: 0%); type: functional
# Saimiri [5] = experiment: Antipsychotic activity in squirrel monkey assessed as inhibition of conditioned avoidance response measured as maximum number of shocks possible per 30 mins interval at 0.25 mg/kg, po after 0 to 30 mins dosing; type: functional
# Saimiri [6] = experiment: Antipsychotic activity in squirrel monkey assessed as inhibition of conditioned avoidance response measured as maximum number of shocks possible per 30 mins interval at 0.25 mg/kg, po after 30 to 60 mins dosing; type: functional
# Saimiri [7] = experiment: Antipsychotic activity in squirrel monkey assessed as inhibition of conditioned avoidance response measured as maximum number of shocks possible per 30 mins interval at 0.25 mg/kg, po after 60 to 90 mins dosing; type: functional
# Saimiri [8] = experiment: Antipsychotic activity in squirrel monkey assessed as inhibition of conditioned avoidance response measured as maximum number of shocks possible per 30 mins interval at 0.50 mg/kg, po after 90 to 120 mins dosing; type: functional; conditions: dose 0.5 mg/kg
# Saimiri [9] = experiment: Antipsychotic activity in squirrel monkey assessed as inhibition of conditioned avoidance response measured as maximum number of shocks possible per 30 mins interval at 0.50 mg/kg, po after 120 to 150 mins dosing; type: functional; conditions: dose 0.5 mg/kg
# Saimiri [10] = experiment: Antipsychotic activity in squirrel monkey assessed as inhibition of conditioned avoidance response measured as maximum number of shocks possible per 30 mins interval at 0.50 mg/kg, po after 150 to 180 mins dosing; type: functional; conditions: dose 0.5 mg/kg
# Saimiri [11] = experiment: Antipsychotic activity in squirrel monkey assessed as inhibition of conditioned avoidance response measured as maximum number of shocks possible per 30 mins interval at 1 mg/kg, po after 180 to 210 mins dosing; type: functional
# Saimiri [12] = experiment: Antipsychotic activity in squirrel monkey assessed as inhibition of conditioned avoidance response measured as maximum number of shocks possible per 30 mins interval at 1 mg/kg, po after 210 to 240 mins dosing; type: functional
# Saimiri [13] = experiment: Antipsychotic activity in squirrel monkey assessed as inhibition of conditioned avoidance response measured as maximum number of shocks possible per 30 mins interval at 1 mg/kg, po after 240 to 270 mins dosing; type: functional
# Saimiri [14] = experiment: (§1) Antipsychotic activity in squirrel monkey assessed as inhibition of conditioned avoidance response measured as maximum number of shocks possible per 30 mins interval at 1 mg/kg, po 6 days later animal received test compound followed by 0.75 mg/kg, im benztropine 15 mins later measured after 0 to 0.5 hrs of dosing; type: functional
# Saimiri [15] = experiment: as §1, with “after 0.5” for “after 0”, “to 1” for “to 0.5”; type: functional
# Saimiri [16] = experiment: as §1, with “after 1” for “after 0”, “to 1.5” for “to 0.5”; type: functional
# Saimiri [17] = experiment: as §1, with “after 1.5” for “after 0”, “to 2” for “to 0.5”; type: functional
# Saimiri [18] = experiment: as §1, with “after 2” for “after 0”, “to 2.5” for “to 0.5”; type: functional
# Saimiri [19] = experiment: as §1, with “after 2.5” for “after 0”, “to 3” for “to 0.5”; type: functional
# Saimiri [20] = experiment: as §1, with “after 3” for “after 0”, “to 3.5” for “to 0.5”; type: functional
# Saimiri [21] = experiment: as §1, with “after 3.5” for “after 0”, “to 4” for “to 0.5”; type: functional
# Saimiri [22] = experiment: as §1, with “after 4” for “after 0”, “to 4.5” for “to 0.5”; type: functional
# Saimiri [23] = experiment: Antipsychotic activity in squirrel monkey assessed as inhibition of conditioned avoidance response measured as maximum number of shocks possible per 30 mins interval at 1 mg/kg, po 10 days later animal received test compound and again saline measured after 0 to 0.5 hrs of dosing; type: functional
# Saimiri [24] = experiment: Antipsychotic activity in squirrel monkey assessed as inhibition of conditioned avoidance response measured as maximum number of shocks possible per 30 mins interval at 1 mg/kg, po 10 days later animal received test compound and again saline measured after 0.5 to 1 hrs of dosing; type: functional
# Saimiri [25] = experiment: Antipsychotic activity in squirrel monkey assessed as inhibition of conditioned avoidance response measured as maximum number of shocks possible per 30 mins interval at 1 mg/kg, po 10 days later animal received test compound and again saline measured after 1 to 1.5 hrs of dosing; type: functional
# Saimiri [26] = experiment: Antipsychotic activity in squirrel monkey assessed as inhibition of conditioned avoidance response measured as maximum number of shocks possible per 30 mins interval at 1 mg/kg, po 10 days later animal received test compound and again saline measured after 1.5 to 2 hrs of dosing; type: functional
# Saimiri [27] = experiment: Antipsychotic activity in squirrel monkey assessed as inhibition of conditioned avoidance response measured as maximum number of shocks possible per 30 mins interval at 1 mg/kg, po 10 days later animal received test compound and again saline measured after 2 to 2.5 hrs of dosing; type: functional
# Saimiri [28] = experiment: Antipsychotic activity in squirrel monkey assessed as inhibition of conditioned avoidance response measured as maximum number of shocks possible per 30 mins interval at 1 mg/kg, po 10 days later animal received test compound and again saline measured after 2.5 to 3 hrs of dosing; type: functional
# Saimiri [29] = experiment: Antipsychotic activity in squirrel monkey assessed as inhibition of conditioned avoidance response measured as maximum number of shocks possible per 30 mins interval at 1 mg/kg, po 10 days later animal received test compound and again saline measured after 3 to 3.5 hrs of dosing; type: functional
# Saimiri [30] = experiment: Antipsychotic activity in squirrel monkey assessed as inhibition of conditioned avoidance response measured as maximum number of shocks possible per 30 mins interval at 1 mg/kg, po 10 days later animal received test compound and again saline measured after 3.5 to 4 hrs of dosing; type: functional
# Saimiri [31] = experiment: Antipsychotic activity in squirrel monkey assessed as inhibition of conditioned avoidance response measured as maximum number of shocks possible per 30 mins interval at 1 mg/kg, po 10 days later animal received test compound and again saline measured after 4 to 4.5 hrs of dosing; type: functional
# Mus musculus [32] = experiment: Peripheral anticholinergic activity in po dosed Carworth CF1 mouse assessed as dose required to produce pupil dilation to 1.5 micrometer units in 50% mouse after 2 hrs; type: ADME, organism-based; conditions: in vivo
# Mus musculus [33] = experiment: Peripheral anticholinergic activity in po dosed Carworth CF1 mouse assessed as dose required to produce pupil dilation to 1.5 micrometer units in 50% mouse after 5 hrs; type: ADME, organism-based; conditions: in vivo
# Mus musculus [34] = experiment: Central anticholinergic activity against physostigmine-induced lethality in Carworth CF1 mouse assessed as animal death at 10 mg/kg, po treated 5 hrs before 1.6 mg/kg, sc physostigmine treatment and 2 mg/kg, ip atropine methyl nitrate treated 0.5 hrs before induction (reference value: 0%); type: functional
# Saimiri [35] = experiment: Antipsychotic activity in po dosed squirrel monkey assessed as inhibition of conditioned avoidance response measured as maximum number of shocks; type: functional; conditions: Saimiri, in Primates, po; read-out: ED50
# Rattus norvegicus = experiment: Blockade of po dosed apomorphine-induced stereotyped behavior in Sprague-Dawley rat assessed as continuous sniffing, licking, gnawing, or biting; type: functional
smiles,measurement,setting,value
"FC(F)(F)Sc1ccc2c(c1)C(=C1CCN(CC3CC3)CC1)c1ccccc1C=C2 (single isomer, unassigned; atropisomer)",Activity,Mus musculus [1],85% and 63%
same,Activity,Mus musculus [2],100% and 85%
same,Activity,Mus musculus [3],95% and 80%
same,Activity,Mus musculus [4],100%
same,%max,Saimiri [5],0.34%
same,%max,Saimiri [6],0.34%
same,%max,Saimiri [7],0.68%
same,%max,Saimiri [8],17.4%
same,%max,Saimiri [9],39.4%
same,%max,Saimiri [10],97.4%
same,%max,Saimiri [11],100%
same,%max,Saimiri [12],100%
same,%max,Saimiri [13],100%
same,%max,Saimiri [14],2%
same,%max,Saimiri [15],7.6%
same,%max,Saimiri [16],5.7%
same,%max,Saimiri [17],5.3%
same,%max,Saimiri [18],8.7%
same,%max,Saimiri [19],4.3%
same,%max,Saimiri [20],4%
same,%max,Saimiri [21],3%
same,%max,Saimiri [22],3.7%
same,%max,Saimiri [23],0%
same,%max,Saimiri [24],1.7%
same,%max,Saimiri [25],42%
same,%max,Saimiri [26],52.7%
same,%max,Saimiri [27],69.3%
same,%max,Saimiri [28],42.7%
same,%max,Saimiri [29],70.3%
same,%max,Saimiri [30],73%
same,%max,Saimiri [31],64.3%
same,ED,Mus musculus [32],> 120 mg/kg
same,ED,Mus musculus [33],> 120 mg/kg
CN1CCC(=C2c3ccccc3C=Cc3ccccc32)CC1 [CYPROHEPTADINE],Activity,Mus musculus [34],0%
same,ED,Mus musculus [32],6 mg/kg
O=C(CCCN1CCC(O)(c2ccc(Cl)cc2)CC1)c1ccc(F)cc1 [HALOPERIDOL],ED50,Saimiri [35],0.29 mg/kg
same,ED50,Rattus norvegicus,0.32 mg/kg
CSc1ccc2c(c1)N(CCC1CCCCN1C)c1ccccc1S2.Cl (stereo not drawn) [THIORIDAZINE HYDROCHLORIDE],ED50,Saimiri [35],0.97 mg/kg

# — ChEMBL document CHEMBL3244029, “Synthesis and stereospecific antipsychotic activity of (-)-1-cyclopropylmethyl-4-(3-trifluoromethylthio-5H-dibenzo[a,d]cyclohepten-5-ylidene)piperidine” (J Med Chem, 1977)
